{
  "source": "patent US20200000099A1",
  "about": "(priority 2017, published 2020)",
  "system": "Xylella fastidiosa (Xf)",
  "type": "cell-based",
  "conditions": "crude ethyl acetate extract of culture supernatant; activity traced to metabolite by NMR and MS",
  "data": [
    {"smiles": "C/C=C/c1cc2c(c(=O)o1)C(=O)[C@@H](O)[C@H](C)O2", "note": "[radicinin]", "values": [
      {"measurement": "anti-Xf activity of extract / metabolite", "result": "inhibitory activity"}
    ]}
  ]
}
